Test [1] deals with T1, PI3Kα H1047R in T47D cells (Homo sapiens, UniProt P42336, H1047R).
T1 construct: endogenous in cells; host or cells: T47D
As to the kind of experiment: PI3Kα cellular assay: T47D pAKT S473 HTRF. In kind it is cell-based. The following applies: for T47D pAKT S473 HTRF IC50 (H1047R): T47D (H1047R) selectivity over SKBR3 (WT): T47D (H1047R) versus SKBR3 (WT) cells; for IC50: T47D cells (H1047R), serum starved, 1 hr compound, 20 ng/ml EGF 10 min. Here is the method:
PI3Kα cellular assay experimental procedure: SKBR3 or T47D cells are seeded in DMEM containing 10% FBS at 25 k cells/well into 96-well cell culture format. Cells are incubated overnight at 37° C. in a 5% CO2 incubator and the following day cell media is aspirated, adherent cells are washed 1× with room temperature PBS prior to serum-free media application. Cells are returned to 37° C. 5% CO2 incubator and incubated a further 16 hrs. Compounds are added to serum starved adherent cells with a top dose of 10,000 nM and 3× multiple dose reductions for a minimum dose of 0.5 nM diluted in DMSO. Cell/compound incubation continues for 1 hr in a 37° C., 5% CO2 incubator prior to 10 minute PIK3CA stimulation with 20 ng/ml EGF. Cells treated with 0.1% DMSO and 20 ng/mL EGF are employed as negative control, cells treated with 10 uM Alpelisib and 20 ng/mL EGF are employed as a positive control. After 10 mins, plates are removed from incubator and cells are lysed with buffer and shaking 45 minutes. 20 μL of lysate is transferred to an opti-384 plate and 2.5 μl of Phospho-AKT d2 antibody with 2.5 μl of Phospho-AKT Eu Cryptate solution in the detection buffer are added to each well. 384 well plate is left overnight at room temperature before reading HTRF on an Envision plate reader.

For the next test, the target named is PI3K H1047R (Homo sapiens, UniProt P42336, H1047R). The test can be described thus: PI3K H1047R ADP-Glo (PI/PS). In kind it is biochemical. Set-up: PI3K H1047R ADP-Glo (PI/PS) IC50: H1047R Selectivity: reference not given here. Particulars: for IC50: PI/PS substrate. Background: In ADP-Glo the light output rises with the ADP produced.

Each structure is given as a SMILES string.

The results in this text go back to US20260130925A1, “METHODS FOR TREATING CANCER” (Genesis Molecular AI, Inc., priority 2022, published 2026).

By IC50 is commonly meant the point on the concentration scale where inhibition reaches its midpoint.

Sequence of PI3K H1047R (P42336 whole entry H1047R): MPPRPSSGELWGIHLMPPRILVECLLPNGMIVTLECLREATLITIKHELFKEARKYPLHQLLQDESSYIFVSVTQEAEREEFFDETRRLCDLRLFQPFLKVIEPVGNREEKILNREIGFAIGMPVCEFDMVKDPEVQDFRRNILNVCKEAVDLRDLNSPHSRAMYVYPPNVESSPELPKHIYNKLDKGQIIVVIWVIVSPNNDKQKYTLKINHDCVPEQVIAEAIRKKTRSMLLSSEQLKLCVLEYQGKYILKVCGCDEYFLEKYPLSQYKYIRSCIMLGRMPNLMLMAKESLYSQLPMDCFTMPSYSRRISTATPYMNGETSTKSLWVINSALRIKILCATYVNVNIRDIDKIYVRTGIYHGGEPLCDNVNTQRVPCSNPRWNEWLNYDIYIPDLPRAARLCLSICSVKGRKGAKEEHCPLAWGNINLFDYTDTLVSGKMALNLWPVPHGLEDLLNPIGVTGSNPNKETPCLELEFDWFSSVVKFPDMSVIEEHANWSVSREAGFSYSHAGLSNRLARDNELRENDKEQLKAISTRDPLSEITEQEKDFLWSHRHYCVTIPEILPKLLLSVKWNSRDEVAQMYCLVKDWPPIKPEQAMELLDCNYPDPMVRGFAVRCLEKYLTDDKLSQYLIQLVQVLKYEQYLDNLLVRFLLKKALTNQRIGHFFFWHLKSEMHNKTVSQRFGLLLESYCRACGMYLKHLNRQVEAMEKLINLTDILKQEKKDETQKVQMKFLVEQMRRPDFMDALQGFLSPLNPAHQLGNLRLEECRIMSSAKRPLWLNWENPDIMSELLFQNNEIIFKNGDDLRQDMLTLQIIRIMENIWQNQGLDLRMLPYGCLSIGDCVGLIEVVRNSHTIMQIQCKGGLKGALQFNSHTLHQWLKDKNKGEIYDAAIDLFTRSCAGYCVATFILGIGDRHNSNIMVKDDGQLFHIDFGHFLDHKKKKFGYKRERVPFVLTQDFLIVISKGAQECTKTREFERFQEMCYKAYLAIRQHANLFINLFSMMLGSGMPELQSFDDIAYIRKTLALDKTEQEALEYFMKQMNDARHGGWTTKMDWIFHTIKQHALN
Sequence of PI3K H1047R (P27986 whole entry partner): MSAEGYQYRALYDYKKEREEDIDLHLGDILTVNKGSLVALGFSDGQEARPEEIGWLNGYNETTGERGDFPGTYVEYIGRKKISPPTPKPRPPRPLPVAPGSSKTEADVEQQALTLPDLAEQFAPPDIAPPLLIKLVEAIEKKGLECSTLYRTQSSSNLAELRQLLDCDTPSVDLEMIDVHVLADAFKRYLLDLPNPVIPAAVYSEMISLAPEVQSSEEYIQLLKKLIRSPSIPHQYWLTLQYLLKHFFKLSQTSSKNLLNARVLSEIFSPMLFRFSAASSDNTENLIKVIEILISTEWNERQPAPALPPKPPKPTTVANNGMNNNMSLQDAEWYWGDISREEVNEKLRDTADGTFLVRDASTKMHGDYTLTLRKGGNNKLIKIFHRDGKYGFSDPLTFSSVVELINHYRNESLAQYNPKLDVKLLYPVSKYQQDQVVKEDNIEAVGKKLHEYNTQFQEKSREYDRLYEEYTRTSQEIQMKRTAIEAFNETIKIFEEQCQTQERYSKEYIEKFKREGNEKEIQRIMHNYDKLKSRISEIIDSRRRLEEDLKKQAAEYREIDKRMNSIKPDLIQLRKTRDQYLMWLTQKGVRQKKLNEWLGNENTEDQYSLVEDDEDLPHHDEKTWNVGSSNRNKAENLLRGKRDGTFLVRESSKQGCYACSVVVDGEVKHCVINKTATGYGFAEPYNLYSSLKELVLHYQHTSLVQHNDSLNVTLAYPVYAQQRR
T1 sequence (P42336 whole entry H1047R): as the sequence (P42336 whole entry H1047R) above
T1 sequence (P27986 whole entry partner): as the sequence (P27986 whole entry partner) above

Consider `Cc1cc([C@H](C)Nc2ccccc2C(=O)O)c2cc(-c3ccnc(C4CC4)c3)n(C)c(=O)c2c1` [Compound 78], for which, in test [1], the “T47D pAKT S473 HTRF IC50 (H1047R): T47D (H1047R) selectivity over SKBR3 (WT)” value is on record as “A (A denotes >20-fold)” and the IC50 is < 750 nM. On PI3K H1047R, the “PI3K H1047R ADP-Glo (PI/PS) IC50: H1047R Selectivity” value was “A (A denotes >20-fold)” and the IC50 is < 1000 nM.

Consider `Cc1cc([C@@H](C)Nc2ccccc2C(=O)O)c2cc(-c3ccnc(C4CC4)c3)n(C)c(=O)c2c1` [Compound 79], for which, in test [1], the “T47D pAKT S473 HTRF IC50 (H1047R): T47D (H1047R) selectivity over SKBR3 (WT)” value was “C (C denotes ≤5-fold)” and the IC50 was ≥ 2000 nM. Also, the IC50 against PI3K H1047R is ≥ 10000 nM.

In the case of `Cc1cc([C@H](C)Nc2ccccc2C(=O)O)c2cc(N3Cc4ccccc4C3)ncc2c1` [Compound 80], the “T47D pAKT S473 HTRF IC50 (H1047R): T47D (H1047R) selectivity over SKBR3 (WT)” value in test [1] is on record as “C (C denotes ≤5-fold)”. Further, the IC50 is ≥ 2000 nM in test [1] and ≥ 10000 nM on PI3K H1047R.

Regarding `Cc1cc([C@@H](C)Nc2ccccc2C(=O)O)c2cc(N3Cc4ccccc4C3)ncc2c1` [Compound 81], in test [1], the “T47D pAKT S473 HTRF IC50 (H1047R): T47D (H1047R) selectivity over SKBR3 (WT)” value is on record as “A (A denotes >20-fold)” and the IC50 was < 750 nM. Besides, at PI3K H1047R, the “PI3K H1047R ADP-Glo (PI/PS) IC50: H1047R Selectivity” value was “A (A denotes >20-fold)” and the IC50 was < 1000 nM.

For `Cc1cc(C(C)Nc2ccccc2C(=O)O)c2cc(-c3ccnc(C4CC4)c3)n(C)c(=O)c2c1` (stereo not shown) [Compound 82], in test [1], the “T47D pAKT S473 HTRF IC50 (H1047R): T47D (H1047R) selectivity over SKBR3 (WT)” value is recorded as “A (A denotes >20-fold)” and the IC50 was < 750 nM. For the same compound, on PI3K H1047R, the “PI3K H1047R ADP-Glo (PI/PS) IC50: H1047R Selectivity” value is listed as “A (A denotes >20-fold)” and the IC50 is < 1000 nM.

With `Cc1cc([C@H](C)Nc2ccccc2C(=O)O)c2cc(-c3ccc4c(c3)c(C)nn4C)ncc2c1` [Compound 83], in test [1], the “T47D pAKT S473 HTRF IC50 (H1047R): T47D (H1047R) selectivity over SKBR3 (WT)” value is on record as “C (C denotes ≤5-fold)” and the IC50 is ≥ 2000 nM. In addition, on PI3K H1047R, the “PI3K H1047R ADP-Glo (PI/PS) IC50: H1047R Selectivity” value was “C (C denotes ≤5-fold)” and the IC50 is ≥ 10000 nM.

Consider `Cc1cc([C@@H](C)Nc2ccccc2C(=O)O)c2cc(-c3ccc4c(c3)c(C)nn4C)ncc2c1` [Compound 84], for which, in test [1], the “T47D pAKT S473 HTRF IC50 (H1047R): T47D (H1047R) selectivity over SKBR3 (WT)” value was “A (A denotes >20-fold)” and the IC50 was < 750 nM. Also, at PI3K H1047R, the “PI3K H1047R ADP-Glo (PI/PS) IC50: H1047R Selectivity” value is on record as “A (A denotes >20-fold)” and the IC50 is < 1000 nM.

On to `Cc1cc([C@H](C)Nc2ccccc2C(=O)O)c2cc(-c3ccc4c(c3)c(C)nn4C)n(C)c(=O)c2c1` [Compound 85], for which, in test [1], the “T47D pAKT S473 HTRF IC50 (H1047R): T47D (H1047R) selectivity over SKBR3 (WT)” value is on record as “B (B denotes 20-fold≥value>5-fold)” and the IC50 was ≥ 2000 nM. Moreover, on PI3K H1047R, the “PI3K H1047R ADP-Glo (PI/PS) IC50: H1047R Selectivity” value is given as “C (C denotes ≤5-fold)” and the concentration for half-maximal inhibition (IC50) is 1000 to 10000 nM.

Regarding `Cc1cc(C(C)Nc2ccccc2C(=O)O)c2cc(-c3ccc4c(c3)c(C)nn4C)ncc2c1` (stereo not shown) [Compound 88], in test [1], the “T47D pAKT S473 HTRF IC50 (H1047R): T47D (H1047R) selectivity over SKBR3 (WT)” value is given as “A (A denotes >20-fold)” and the IC50 was < 750 nM. At PI3K H1047R, the “PI3K H1047R ADP-Glo (PI/PS) IC50: H1047R Selectivity” value is on record as “A (A denotes >20-fold)” and the half-maximal inhibitory concentration (IC50) was < 1000 nM.
